# Laboratory results from patent US20080033007A1, “Substituted Tetrahydroisoquinoline Compounds for Cancer Therapy” (priority 2002, published 2008).
# Entries after “also recorded” stand apart in the source; their conditions may differ.
# Tests used:
# [1] = tested on: primary cultured cortical astrocytes; assay: effect on primary cultured cortical astrocytes (Example 5); conditions: at EC50 concentrations for the C6 gliomas
# C6 glioma = assay: in vivo rat model: C6 glioma cells injected into brain, treatment by osmotic mini pump; conditions: rat hippocampus, 7 days treatment
# Source text: Approximately 5×10^4 C6 glioma cells were transplanted into a rat brain via a cannula followed by treatment for seven days. Tumor cells are depicted by staining for beta galactosidase.
# FIG. 2 is a graph depicting the maximum extent of tumor in a single section.
# A rat model system was developed to examine the in vivo efficacy of the compounds of the present invention.
# The first step was to produce a cell line with a marker gene. A rat C6 glioma cell line was selected and stably transfected with a β-galactosidase construct. These cells were cultured and prepared for injection into the brain of adult Sprague-Dawley rats to simulate in vivo tumor development.
# The animals were anesthetized and a cannula was placed into the brain. Approximately 5×10^4 glioma cells were injected through the cannula. […] The mini osmotic pump delivered 1 μl/hr for 7 days. With the tubing used to connect the pump, there was approximately a 10 hour delay for the treatment to reach the brain.
# The section with the largest extent of tumor visible in all of the cases was identified and the cross-sectional area of the tumor was measured.
# [2] = tested on: MCF7, A549, HeLa, LnCap cancer cell lines; assay: anti-proliferative activity against cancer cell lines, 96 hr; format: cell-based; conditions: every type of cancer tested: brain, breast, lung epithelial, cervical, prostate cancer cell lines
# Method: Cell proliferation was measured and EC50 values were estimated.
# [3] = animal toxicity test, delivery into striatum by mini-osmotic pump; format: in vivo, rat; conditions: 5 μM into striatum, five days, Nissl stain; hydrochloride
# Method: The drug was delivered directly into the striatum of rats at a concentration of 5 μM, two times greater than the estimated EC50 value. […] The rats were sacrificed, brain sections were investigated for any major tissue change in the brain. Brains were fixed in 4% paraformaldehyde, cut in sections and stained by the Nissl method.
# The drug was administered into the striatum of rats at 5 μM, which is approximately two times greater than the estimated EC5) value. […] The rats were sacrificed and brain sections were investigated for any major tissue change in the brain. Brains were fixed in 4% paraformaldehyde, cut in sections, and stained by the Nissl method.
# C6 rat glioma = assay: differential culture cytotoxicity assay, C6 glioma; conditions: comparison of IC50 values
# Method: Normal cultured rat astrocytes and C6 rat glioma were used as a differential screen for a variety of 1,2,3,4-tetrahydroisoquinoline derivatives. […] To explore structure activity relationships (SAR) a number of 1,2,3,4-tetrahydroisoquinolines 2, 4, 5, 7, and 8 were synthesized and tested for antiglioma activity.
# The astrocytes primary culture was derived from neonatal (4-8 days postpartum) rat pups as described by Geisert et al. The primary cultures were prepared as per McCarthy et al. Briefly, the rat pups were anesthetized on ice, decapitated, and the brains were removed. The cerebral cortex was removed, stripped of the meninges, and cut into small pieces of approximately 1 mm^2. The tissue was placed in 0.1% trypsin for 15 min and gently pipetted to produce a single cell suspension. The cell suspension was then rinsed in media and transferred to culture flasks. […]
# The experimental treatment was the incubation of the cells with test compound for 96 h at 37° C., 5% CO2. The cells were fixed with 4% formaldehyde, stained with 0.1% cresylecth violet stain, and quantitated as per Wagner et a. […]
# The cytotoxic character of each compound was reported as the percent survival, calculated as the average A560 for treated cells divided by A560 of untreated (negative control) cells, and expressed as a percentage. […]
compound,measurement,setting,value
Cl.Oc1cc2c(cc1O)C(Cc1ccc(-c3ccccc3)cc1)NCC2 (racemic) [MMGS-155],destruction to astrocytes,[1],only minimal destruction to astrocytes
same,pathology of normal brain tissue beneath treatment cannula,C6 glioma,Limited pathology
same,"LD50, killing of cancer cells in culture",[2],approximately 3 μM
same,brain damage / tissue change,[3],did not show any sign of brain damage; also recorded: brain tissue appears normal
same,cytotoxic activity relative to another compound,"C6 rat glioma; listed as 1, hydrochloride",more potent; also recorded: at least two-fold higher potency
same,cytotoxic activity relative to another compound,"C6 rat glioma; listed as 1-(biphenyl-4-ylmethyl)-1,2,3,4-tetrahydroisoquinoline-6,7-diol, hydrochloride",increased relative potency
